Results on 1 molecule are retold here after patent publication US8629171B2, “Crystalline form of methyl ((1S)-1-((25)-2-(5-(4'-(2-((25)-1((2S)-2-((methoxycarbonyl)amino)-3-methylbutanoyl)-2-pyrrolidinyl)-1H-imidazol-2-yl)-1-pyrrolidinyl)carbonyl)-2-methylpropyl)carbamate dihydrochloride salt” (Bristol-Myers Squibb Company, priority 2007, dated 2014).

A short description of this series: aqueous solubility. The format is physicochemical. The settings on record: crystalline Form N-2 of the dihydrochloride salt.

Counter-ions that a name gives are not always drawn.

Regarding `COC(=O)N[C@H](C(=O)N1CCC[C@H]1c1nc(-c2ccc(-c3ccc(-c4c[nH]c([C@@H]5CCCN5C(=O)[C@@H](NC(=O)OC)C(C)C)n4)cc3)cc2)c[nH]1)C(C)C` [Compound (I), methyl ((1S)-1-(((2S)-2-(5-(4′-(2-((2S)-1-((2S)-2-((methoxycarbonyl)amino)-3-methylbutanoyl-2-pyrrolidinyl)-1H-imidazol-5-yl)-4-biphenylyl)-1H-imidazol-2-yl)-1-pyrrolidinyl)carbonyl)-2-methylpropyl)carbamatedihydrochloride salt], the aqueous solubility entry is “high”.
